16 molecules from ChEMBL document CHEMBL1139373, “Metabolic soft spot identification and compound optimization in early discovery phases using MetaSite and LC-MS/MS validation” (J Med Chem, 2009) can be followed below.

The first data set can be described thus: Metabolic stability in human liver microsomes assessed as intrinsic clearance per mg of protein. The note with it: liver microsomes.
On to `CN1CC(=O)N2[C@H](c3ccc4c(c3)OCO4)c3[nH]c4ccccc4c3C[C@@H]2C1=O`, for which the microsomal CLint was 49 µL/min/mg.
For `CC(=O)CC(c1ccc([N+](=O)[O-])cc1)c1c(O)c2ccccc2oc1=O` (stereo unspecified) [ACENOCOUMAROL], the microsomal CLint amounted to 37 µL/min/mg.
On to `CC(C)COCC(CN(Cc1ccccc1)c1ccccc1)N1CCCC1` (stereo unspecified) [BEPRIDIL], for which the microsomal CLint amounted to 94 µL/min/mg.
As for `c1ccc(C2(c3ccccc3)CC2C2=NCCN2)cc1` (stereo unspecified) [CIFENLINE], the microsomal CLint stood at 28 µL/min/mg.
On to `CN(C)CCCC1(c2ccc(F)cc2)OCc2cc(C#N)ccc21` (stereo unspecified) [CITALOPRAM], for which the microsomal CLint is 36 µL/min/mg.
Consider `c1ccc2c(c1)Sc1ccccc1N2CC1CN2CCC1CC2` (stereo unspecified) [MEQUITAZINE], for which the microsomal CLint turned out to be 34 µL/min/mg.
In the case of `CN(C)CCOc1ccc(/C(=C(/CCCl)c2ccccc2)c2ccccc2)cc1` [TOREMIFENE], the intrinsic metabolic clearance (microsomal CLint) was 31 µL/min/mg.
Regarding `CC(/C=C/C(=O)NO)=C\[C@@H](C)C(=O)c1ccc(N(C)C)cc1` [TRICHOSTATIN], the microsomal CLint turned out to be 107 µL/min/mg.
`CN1[C@@H]2CC[C@H]1C[C@@H](OC(=O)c1c[nH]c3ccccc13)C2` [TROPISETRON]: the microsomal CLint came out at 22 µL/min/mg.
As for `COc1ccc(C(CN(C)C)C2(O)CCCCC2)cc1` (stereo unspecified) [VENLAFAXINE], the intrinsic clearance (microsomal CLint) came out at 59 µL/min/mg.

Still in this data set, the particulars now being: microsomes.
Turning to `COc1ccccc1OCCNCC(O)COc1cccc2[nH]c3ccccc3c12` (stereo unspecified) [CARVEDILOL], the microsomal CLint was 235 µL/min/mg.
Regarding `CN(C)CCCN1c2ccccc2Sc2ccc(Cl)cc21` [CHLORPROMAZINE], the microsomal CLint came to 117 µL/min/mg.
`O=c1c(O)c(-c2ccc(O)cc2)oc2cc(O)cc(O)c12` [KAEMPFEROL]: the intrinsic clearance (microsomal CLint) is 269 µL/min/mg.
As to `CNC1(c2ccccc2Cl)CCCCC1=O` (stereo unspecified) [KETAMINE], the microsomal CLint is 136 µL/min/mg.
Same read-out and setting: in the case of `CNCCCC12CCC(c3ccccc31)c1ccccc12` [MAPROTILINE] it was 31 µL/min/mg; in that of `Cc1ncc2n1-c1ccc(Cl)cc1C(c1ccccc1F)=NC2` [MIDAZOLAM], 554 µL/min/mg.
